The values below come from US10323061B2, “Heteroaryl containing bile acid analogs as FXR/TGR5 agonists and methods of use thereof” (ENANTA PHARMACEUTICALS, INC., priority 2016, dated 2019).

The experiment addresses T1, human FXR (NR1H4) (Homo sapiens, UniProt Q96RI1).
T1 construct: host or cells: CHO (Chinese hamster ovary) cells
T1 sequence (Q96RI1 1-486): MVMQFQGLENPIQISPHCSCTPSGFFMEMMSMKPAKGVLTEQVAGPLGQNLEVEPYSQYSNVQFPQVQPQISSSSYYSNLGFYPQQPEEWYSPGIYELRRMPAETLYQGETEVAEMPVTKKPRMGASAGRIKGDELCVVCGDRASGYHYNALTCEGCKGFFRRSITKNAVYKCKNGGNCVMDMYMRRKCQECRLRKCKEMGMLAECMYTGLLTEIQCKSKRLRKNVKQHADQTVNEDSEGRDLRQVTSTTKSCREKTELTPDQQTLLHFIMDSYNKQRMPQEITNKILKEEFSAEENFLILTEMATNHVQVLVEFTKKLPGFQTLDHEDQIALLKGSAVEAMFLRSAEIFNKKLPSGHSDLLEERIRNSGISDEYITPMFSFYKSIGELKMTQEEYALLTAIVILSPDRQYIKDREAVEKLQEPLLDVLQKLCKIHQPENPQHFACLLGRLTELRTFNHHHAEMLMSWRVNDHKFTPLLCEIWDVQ
In words: Human FXR (NR1H4) Assay (Gal4 promoter driven luciferase reporter, Indigo Bioscience kit IB00601). The following applies: CHO reporter cells expressing human NR1H4; for EC50: FXR agonistic potency range, 22 hours incubation; for Efficacy (%): normalized to CDCA set as 100%. It is filed as cell-based. The text has this:
Assays Human FXR (NR1H4) Assay Determination of a ligand mediated Gal4 promoter driven transactivation to quantify ligand binding mediated activation of FXR. FXR Reporter Assay kit purchased from Indigo Bioscience (Catalogue number: IB00601) to determine the potency and efficacy of compound developed by Enanta that can induce FXR activation. The principal application of this reporter assay system is to quantify functional activity of human FXR. The assay utilizes non-human mammalian cells, CHO (Chinese hamster ovary) cells engineered to express human NR1H4 protein (referred to as FXR). Reporter cells also incorporate the cDNA encoding beetle luciferase which catalyzes the substrates and yields photon emission. Luminescence intensity of the reaction is quantified using a plate-reading luminometer, Envision. Reporter Cells include the luciferase reporter gene functionally linked to an FXR responsive promoter. Thus, quantifying changes in luciferase expression in the treated reporter cells provides a sensitive surrogate measure of the changes in FXR activity. […] The assay is according to the manufacturer's instructions. In brief, the assay was performed in white, 96 well plates using final volume of 100 ul containing cells with different doses of compounds. Retrieve Reporter Cells from −80° C. storage. Perform a rapid thaw of the frozen cells by transferring a 10 ml volume of 37° C. cell recovery medium into the tube of frozen cells. Recap the tube of Reporter Cells and immediately place it in a 37° C. water bath for 5-10 minutes. Retrieve the tube of Reporter Cell Suspension from the water bath. Sanitize the outside surface of the tube with a 70% alcohol swab, and then transfer it into the cell culture hood. Dispense 90 μl of cell suspension into each well of the 96-well Assay Plate. Transfer the plate into 37° C. incubator, allowing the cells adherent to the bottom of the well. Dilute compounds in Dilution Plate (DP), and administrate to cells at Assay Plate (AP). DMSO content of the samples was kept at 0.2%. Cells were incubated for additional 22 hours before luciferase activities were measured. Thirty minutes before intending to quantify FXR activity, remove Detection Substrate and Detection Buffer from the refrigerator and place them in a low-light area so that they may equilibrate to room temperature. Remove the plate's lid and discard all media contents by ejecting it into an appropriate waste container. Gently tap the inverted plate onto a clean absorbent paper towel to remove residual droplets. Cells will remain tightly adhered to well bottoms. Add 100 μl of luciferase detection reagent to each well of the assay plate. Allow the assay plate to rest at room temperature for at least 5 minutes following the addition of LDR. Set the instrument (Envision) to perform a single 5 second “plate shake” prior to reading the first assay well. Read time may be 0.5 second (500 mSec) per well.
In general terms: In a reporter assay the amount or activity of a reporter protein is the signal.

As a reminder, the EC50 is the concentration giving half of the maximal effect. The low end stands for greater potency, the high end for weaker potency. For `CC[C@H]1[C@@H](O)[C@@H]2[C@H](CC[C@]3(C)[C@@H]([C@H](C)CCc4nnc(C(C)(C)C)s4)CC[C@@H]23)[C@@]2(C)CC[C@@H](O)C[C@@H]12` [Example 17], the 50% effective concentration (EC50) lay within 100 to 1000 nM and the “Efficacy (%)” value was 314%.
The matching figures for `CC[C@H]1[C@@H](O)[C@@H]2[C@H](CC[C@]3(C)[C@@H]([C@H](C)CCc4nnc(Cc5ccccc5)s4)CC[C@@H]23)[C@@]2(C)CC[C@@H](O)C[C@@H]12` [Example 16]: 100 to 1000 nM and 378%.
For `CC[C@H]1[C@@H](O)[C@@H]2[C@H](CC[C@]3(C)[C@@H]([C@H](C)CCc4nnc(N(C)C)o4)CC[C@@H]23)[C@@]2(C)CC[C@@H](O)C[C@@H]12` [Example 14] the same measures were 100 to 1000 nM and 265%.
The matching figures for `CC[C@H]1[C@@H](O)[C@@H]2[C@H](CC[C@]3(C)[C@@H]([C@H](C)Cc4nnc(-c5ccc(C(C)(C)C)cc5)o4)CC[C@@H]23)[C@@]2(C)CC[C@@H](O)C[C@@H]12` [Example 20]: 1000 to 10000 nM and 87%.
For `CC[C@H]1[C@@H](O)[C@@H]2[C@H](CC[C@]3(C)[C@@H]([C@H](C)CCc4nnc(C5CCCCC5)s4)CC[C@@H]23)[C@@]2(C)CC[C@@H](O)C[C@@H]12` [Example 18], the EC50 was in the range of 1000 to 10000 nM and the “Efficacy (%)” value is given as 244%.
For `CC[C@H]1[C@@H](O)[C@@H]2[C@H](CC[C@]3(C)[C@@H]([C@H](C)CCc4nnc(C5CC5)s4)CC[C@@H]23)[C@@]2(C)CC[C@@H](O)C[C@@H]12` [Example 12] the same measures were 100 to 1000 nM and 369%.
Consider `CC[C@H]1[C@@H](O)[C@@H]2[C@H](CC[C@]3(C)[C@@H]([C@H](C)CCc4nnc(-c5ccccc5)s4)CC[C@@H]23)[C@@]2(C)CC[C@@H](O)C[C@@H]12` [Example 15], for which the EC50 lay in the range of 100 to 1000 nM and the “Efficacy (%)” value is 362%.
With `CC[C@H]1[C@@H](O)[C@@H]2[C@H](CC[C@]3(C)[C@@H]([C@H](C)CCc4nnc(N)o4)CC[C@@H]23)[C@@]2(C)CC[C@@H](O)C[C@@H]12` [Example 9], the EC50 was 100 to 1000 nM and the “Efficacy (%)” value was 222%.
For the compound `CC[C@H]1[C@@H](O)[C@@H]2[C@H](CC[C@]3(C)[C@@H]([C@H](C)CCc4nnc(C5CC5)[nH]4)CC[C@@H]23)[C@@]2(C)CC[C@@H](O)C[C@@H]12` [Example 13], the EC50 lay in the range of 1000 to 10000 nM and the “Efficacy (%)” value is on record as 168%.
The matching figures for `CC[C@H]1[C@@H](O)[C@@H]2[C@H](CC[C@]3(C)[C@@H]([C@H](C)CCc4nc(C5CC5)no4)CC[C@@H]23)[C@@]2(C)CC[C@@H](O)C[C@@H]12` [Example 11]: 1000 to 10000 nM and 239%.
The matching figures for `CC[C@H]1[C@@H](O)[C@@H]2[C@H](CC[C@]3(C)[C@@H]([C@H](C)Cc4nnc(NS(=O)(=O)N(C)C)[nH]4)CC[C@@H]23)[C@@]2(C)CC[C@@H](O)C[C@@H]12` [Example 8]: 100 to 1000 nM and 234%.
On to `CC[C@H]1[C@@H](O)[C@@H]2[C@H](CC[C@]3(C)[C@@H]([C@H](C)CCc4nnc(-c5ccc(C(C)(C)C)cc5)s4)CC[C@@H]23)[C@@]2(C)CC[C@@H](O)C[C@@H]12` [Example 19], for which the EC50 lay in the range of 1000 to 10000 nM and the “Efficacy (%)” value was determined as 172%.
As to `CC[C@H]1[C@@H](O)[C@@H]2[C@H](CC[C@]3(C)[C@@H]([C@H](C)CCc4nnc(C5CC5)o4)CC[C@@H]23)[C@@]2(C)CC[C@@H](O)C[C@@H]12` [Example 10], the EC50 lay within 100 to 1000 nM and the “Efficacy (%)” value is on record as 304%.
